Measured values published in patent US20060095978A1, “Screening assay” (priority 2002, published 2006).

Columns and labels:
IL-4 = assay: Serum IL-4 in OVA323-339 stimulated DO11.10 mice (ELISA); format: in vivo, mouse; conditions: for IL-4 level in pg/ml serum on day 0 after 0 hours: 0 hours (before injection)
Method: (§1) Groups of six, 8-10 weeks old, male or female DO11.10 mice weighing between 20-22 g are obtained as described in Murphy K. M. et al. 1990, Science 250:1720-1722. The animals are maintained in Microvent positive air supply cages (22±1° C., 55±5% relative humidity, 50-70 changes of fresh air/hour and 12 hours day and night cycle) with sawdust bedding. Standard laboratory mouse chow (SNIFF, Soest, Germany) and drinking water is given ad libidum. The animals are used for the study after an adaptation period of 10-14 days and grouped (6 per group) in type II Macrolon cages one day before the experiment.
(§2) Groups of six DO11.10 mice are i.p. injected with 10 μg of ovalbumin (OVA, Sigma, St. Louis, USA) absorbed to 2 mg of Al(OH)3 (Alu Gel S; 2% Al(OH)3, Serva, Heidelberg, FRG) and diluted with saline to a volume of 0.2 ml or various amounts (1, 3, 10, 30, or 90 μg per mouse) of alum-precipitated OVA323-339 peptide (98% purity, piChem R&D, Graz Austria) in 0.2 ml on days 0 and 14. Before and at different time points on days 0 and 14 after the OVA or OVA323-339 peptide administration about 200 μl of blood are collected by puncture of the retro-orbital plexus under ether anesthesia.
(§3) The sera are collected and stored frozen at −20° C. until analyzed. […]
(§4) Murine IL-2, IFN-γ and IL-4 are analyzed by immunoassays (Quantikine R&D Systems, Minneapolis, Minn., USA). Results are expressed as pg per ml serum expressed as mean±SEM pg of the cytokine indicated per ml serum. Test and control groups are evaluated by Dunn test by Kruskall-Wallis One Way Anova using the SigmaStat® program.
Serum IL-4 levels after primary and secondary OVA323-339 peptide antigen stimulation are shown in TABLE 3: Groups of 6 mice receive various doses (1, 3, 10, 30 and 90 μg/mouse) of alum-precipitated OVA323-339 peptide i.p. on day 0 and 14. Animals of the control group are injected with alum. Blood is collected before and at 2, 4, and 6 hours after the first (A) and after the second peptide injection (B). IL-4 is determined in the sera by an ELISA. Results are expressed as mean pg per ml serum±SEM. […]

IFN-γ = assay: Serum IFN-γ in OVA/OVA323-339 stimulated DO11.10 mice (ELISA); format: in vivo, mouse; conditions: for IFN-γ level in pg/ml serum on day 0 after 0 hours: 0 hours (before injection); for increase of INF-γ serum concentration: 90 μg per mouse
Method: as §1, §2, §3
as §4, with “program. […]” for “program.”
Mice of the control group are injected with alum. Blood is collected before and at 2, 4, and 6 hours after the first peptide injection. INF-γ is determined in the sera by an ELISA. Results are expressed as mean pg per ml serum±SEM. […]

## OVA323-339: peptide derived from chicken ovalbumin containing amino acids from position 323 to 339 (KISQAVHAAHAEINEAG; UniProt P01012 323-339, looked up, fragment)
IL-4; 1 μg OVA323-339 i.p.
  IL-4 level in pg/ml serum on day 0 after 0 hours: 25.770 ± 2.618 pg/mL
  IL-4 level in pg/ml serum on day 0 after 2 hours: 36.426 ± 5.871 pg/mL
  IL-4 level in pg/ml serum on day 0 after 4 hours: 4.094 ± 1.072 pg/mL
  IL-4 level in pg/ml serum on day 0 after 6 hours: 13.354 ± 4.010 pg/mL
IL-4; 1 μg of peptide, first injection
  change of IL-4 levels: remain unchanged
IL-4; 3 μg OVA323-339 i.p.
  IL-4 level in pg/ml serum on day 0 after 0 hours: 17.905 ± 3.616 pg/mL
  IL-4 level in pg/ml serum on day 0 after 2 hours: 37.706 ± 4.028 pg/mL
  IL-4 level in pg/ml serum on day 0 after 4 hours: 7.903 ± 0.957 pg/mL
  IL-4 level in pg/ml serum on day 0 after 6 hours: 11.051 ± 2.549 pg/mL
IL-4; 3 μg of peptide, after 2 hours
  increase of serum IL-4 levels compared to alum control: only slightly
IL-4; 10 μg OVA323-339 i.p.
  IL-4 level in pg/ml serum on day 0 after 0 hours: 16.296 ± 3.397 pg/mL
  IL-4 level in pg/ml serum on day 0 after 2 hours: 41.870 ± 9.751 pg/mL
  IL-4 level in pg/ml serum on day 0 after 4 hours: 18.804 ± 1.757 pg/mL
  IL-4 level in pg/ml serum on day 0 after 6 hours: 5.735 ± 2.226 pg/mL
IL-4; 10 μg of peptide, after 2 hours
  increase of serum IL-4 levels compared to alum control: only slightly
IL-4; 30 μg OVA323-339 i.p.
  IL-4 level in pg/ml serum on day 0 after 0 hours: 16.524 ± 2.209 pg/mL
  IL-4 level in pg/ml serum on day 0 after 2 hours: 93.594 ± 29.015 pg/mL
  IL-4 level in pg/ml serum on day 0 after 4 hours: 41.725 ± 10.226 pg/mL
  IL-4 level in pg/ml serum on day 0 after 6 hours: 17.173 ± 2.069 pg/mL
IL-4; 30 μg of peptide, at 2 hours
  rise of serum IL-4 levels: 3 fold
IL-4; 90 μg OVA323-339 i.p.
  IL-4 level in pg/ml serum on day 0 after 2 hours: 273.017 ± 95.997 pg/mL
  IL-4 level in pg/ml serum on day 0 after 4 hours: 146.940 ± 21.784 pg/mL
  IL-4 level in pg/ml serum on day 0 after 6 hours: 127.616 ± 7.397 pg/mL
IL-4; 90 μg peptide, after 4 and 6 hours
  rise of serum IL-4 levels: 7-8 fold
IL-4; 90 μg peptide, after 2 hours
  increase of serum IL-4 levels: 14 fold
IL-4; second antigen stimulation (day 14)
  rise in the IL-4 levels after the second antigen stimulation: up to several 100 fold
IL-4; second injection of 1 μg of peptide 2 weeks later
  change of IL-4 levels compared to the control: does not change
IFN-γ; 1 μg OVA323-339 i.p.
  IFN-γ level in pg/ml serum on day 0 after 0 hours: 11.181 ± 1.288 pg/mL
  IFN-γ level in pg/ml serum on day 0 after 2 hours: 18.047 ± 3.944 pg/mL
  IFN-γ level in pg/ml serum on day 0 after 4 hours: 41.034 ± 12.394 pg/mL
  IFN-γ level in pg/ml serum on day 0 after 6 hours: 15.925 ± 4.594 pg/mL
IFN-γ; 3 μg OVA323-339 i.p.
  IFN-γ level in pg/ml serum on day 0 after 0 hours: 8.230 ± 1.430 pg/mL
  IFN-γ level in pg/ml serum on day 0 after 2 hours: 62.724 ± 7.939 pg/mL
  IFN-γ level in pg/ml serum on day 0 after 4 hours: 63.023 ± 12.462 pg/mL
  IFN-γ level in pg/ml serum on day 0 after 6 hours: 25.962 ± 8.858 pg/mL
IFN-γ; 3 μg, at 2 and 4 hours
  increase of serum INF-γ levels compared to alum control: about 11 fold
IFN-γ; 10 μg OVA323-339 i.p.
  IFN-γ level in pg/ml serum on day 0 after 0 hours: 0.374 ± 0.324 pg/mL
  IFN-γ level in pg/ml serum on day 0 after 2 hours: 65.927 ± 23.147 pg/mL
  IFN-γ level in pg/ml serum on day 0 after 4 hours: 202.260 ± 48.410 pg/mL
  IFN-γ level in pg/ml serum on day 0 after 6 hours: 24.047 ± 9.455 pg/mL
IFN-γ; 10 μg OVA323-339 peptide 2 weeks after 10 μg OVA
  rise in INF-γ serum levels compared to alum alone: ~25 fold
IFN-γ; 30 μg OVA323-339 i.p.
  IFN-γ level in pg/ml serum on day 0 after 0 hours: 3.988 ± 0.700 pg/mL
  IFN-γ level in pg/ml serum on day 0 after 2 hours: 207.727 ± 62.093 pg/mL
  IFN-γ level in pg/ml serum on day 0 after 4 hours: 176.807 ± 79.268 pg/mL
  IFN-γ level in pg/ml serum on day 0 after 6 hours: 187.325 ± 62.370 pg/mL
IFN-γ; 30 μg per mouse, at 2, 4 and 6 hours
  increase of serum IFN-γ levels: 32-38 fold
IFN-γ; 90 μg OVA323-339 i.p.
  IFN-γ level in pg/ml serum on day 0 after 2 hours: 407.899 ± 106.513 pg/mL
  IFN-γ level in pg/ml serum on day 0 after 4 hours: 413.925 ± 65.247 pg/mL
  IFN-γ level in pg/ml serum on day 0 after 6 hours: 514.918 ± 72.758 pg/mL
IFN-γ; at 2 and 4 hours
  increase of INF-γ serum concentration: 75 fold
IFN-γ; at 6 hours
  increase of INF-γ serum concentration: 94 fold
IFN-γ; 10 g (printed) of peptide, at 4 hours
  increase of serum IFN-γ levels: about 40 fold
IFN-γ; first injection of 10 μg peptide, 3 hours after
  increase in IFN-γ levels in sera: 50 fold
IFN-γ; primary stimulation, 1 μg per mouse, only at 4 hours
  change in serum INF-γ levels: small increase
IFN-γ; second sensitization, same dose (10 μg) of peptide
  rise of INF-γ levels after second sensitization: same magnitude
